Experimental data as given in patent publication US20240368113A1, “AMIDE COMPOUND AND USE THEREOF” (Chengdu Fendi Pharmaceutical Co. Ltd., priority 2021, published 2024).

Assays:
MV-4-11 cells = test: Inhibition of tumor cell proliferation (CellTiter-Glo); format: cell-based; settings: Homo sapiens, MV4-11; MV-4-11 cells, 72 h, CellTiter-Glo; read-out: IC50 of inhibitory activity of tumor cell proliferation
Method: MV-4-11 cells were diluted with medium (RPM1640+10% FBS+1% PS) and plated at 4000 cells/well in a white-walled clear-bottom 96-well plate. MV-4-11 cells were plated and incubated in a 5% CO2, 37° C. incubator for 2 hours. Cells were treated with the indicated concentration of compound or DMSO (control), and placed in a 5% CO2, 37° C. incubator for 72 h after dosing. After the end of the culture, equilibrate at room temperature for 30 min, add 100 μl of CellTiter-Glo® Reagent to each well, and shake the microplate shaker for 2 min. After 10 min of incubation at room temperature, the luminescence was measured by a microplate reader, and the cell-free wells were used as the background wells. CC-90009 (celegen patent phase I) was used as a control, and its structural formula was as follows: 0

GSPT1 [1] = target: T1, GSPT1 (Homo sapiens, UniProt P15170); test: Western blot of GSPT1 degradation in MV-4-11 cells; format: cell-based; design: endogenous in cells; settings: 4 h treatment, western blot (FIG. 1)
Method: (§1) Test Case 1: Regulatory Effect of the Present Invention Compound on GSPT1 in MV-4-11 Cells MV-4-11 (human myeloid monocytic leukemia cells) and NB-4 (human acute promyelocytic leukemia cells) cells were treated with medium RPMI 1640+10% FBS at 1*10^6/well was seeded in 6-well plates, then compounds were added for 4 h treatment, DMSO was used as a blank control, and cells were collected by centrifugation. Western blot analysis was performed with antibody labeling (Anti-GSPT1: CellSignaling Technology #14980s; Anti-GAPDH: HuabioET601-4; Goatanti-RabbitIgG-HRPantibody: HuabioHA1001) for detection on a Bio-Rad or MINICHEMI™ imaging system.

hERG potassium channel [2] = target: T2, hERG potassium channel (Homo sapiens, UniProt Q12809); test: hERG inhibition assay (automated patch clamp, QPatch); settings: HEK293 cells expressing hERG, 3 min exposure
Method: (§2) This test example is used to measure the effect of the compound on the hERG potassium channel of the clone expressed in human embryonic kidney cells (HEK293).
(§3) Assay: cells are placed in HEPES-buffered saline solution in glass-lined 96-well plates and loaded with appropriate amounts of test and control solution (0.3% DMSO solution) at each concentration for 3 min exposure time. Dilute the compound to be tested in 0.3% DMSO. An automated parallel patch-clamp system QPatch 48 X (Sophion) was used to test the inhibition of hERG by compounds at a concentration of 3 μM.
(§4) The calculation method of the inhibition rate is as follows: (peak tail current in the control group−peak tail current in the test group)/(peak tail current in the control group)×100%.

hERG potassium channel [3] = target: T2, hERG potassium channel; test: in vitro; settings: hERG Inhibition rate (3 μM), HEK293 cells expressing hERG, 3 min exposure
Method: as §2, §3, §4

GSPT1 [4] = target: T1, GSPT1; test: Western blot of GSPT1 degradation in NB-4 cells; format: cell-based; design: endogenous in cells; host or cells: NB-4
Method: as §1

T1 sequence (P15170 whole entry): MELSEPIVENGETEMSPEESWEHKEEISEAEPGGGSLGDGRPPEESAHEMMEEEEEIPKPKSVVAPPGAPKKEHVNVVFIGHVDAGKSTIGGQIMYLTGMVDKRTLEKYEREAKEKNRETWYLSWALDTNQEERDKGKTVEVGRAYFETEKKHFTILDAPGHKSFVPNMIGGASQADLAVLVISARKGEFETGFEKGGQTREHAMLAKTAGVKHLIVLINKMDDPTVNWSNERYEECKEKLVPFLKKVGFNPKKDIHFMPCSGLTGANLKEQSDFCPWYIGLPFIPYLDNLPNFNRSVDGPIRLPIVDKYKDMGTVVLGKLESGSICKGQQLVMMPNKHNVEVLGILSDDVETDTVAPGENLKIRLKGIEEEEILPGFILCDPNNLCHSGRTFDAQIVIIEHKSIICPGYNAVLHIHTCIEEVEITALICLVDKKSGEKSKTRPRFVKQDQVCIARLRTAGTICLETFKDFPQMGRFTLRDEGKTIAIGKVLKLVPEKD
T2 sequence (Q12809 whole entry): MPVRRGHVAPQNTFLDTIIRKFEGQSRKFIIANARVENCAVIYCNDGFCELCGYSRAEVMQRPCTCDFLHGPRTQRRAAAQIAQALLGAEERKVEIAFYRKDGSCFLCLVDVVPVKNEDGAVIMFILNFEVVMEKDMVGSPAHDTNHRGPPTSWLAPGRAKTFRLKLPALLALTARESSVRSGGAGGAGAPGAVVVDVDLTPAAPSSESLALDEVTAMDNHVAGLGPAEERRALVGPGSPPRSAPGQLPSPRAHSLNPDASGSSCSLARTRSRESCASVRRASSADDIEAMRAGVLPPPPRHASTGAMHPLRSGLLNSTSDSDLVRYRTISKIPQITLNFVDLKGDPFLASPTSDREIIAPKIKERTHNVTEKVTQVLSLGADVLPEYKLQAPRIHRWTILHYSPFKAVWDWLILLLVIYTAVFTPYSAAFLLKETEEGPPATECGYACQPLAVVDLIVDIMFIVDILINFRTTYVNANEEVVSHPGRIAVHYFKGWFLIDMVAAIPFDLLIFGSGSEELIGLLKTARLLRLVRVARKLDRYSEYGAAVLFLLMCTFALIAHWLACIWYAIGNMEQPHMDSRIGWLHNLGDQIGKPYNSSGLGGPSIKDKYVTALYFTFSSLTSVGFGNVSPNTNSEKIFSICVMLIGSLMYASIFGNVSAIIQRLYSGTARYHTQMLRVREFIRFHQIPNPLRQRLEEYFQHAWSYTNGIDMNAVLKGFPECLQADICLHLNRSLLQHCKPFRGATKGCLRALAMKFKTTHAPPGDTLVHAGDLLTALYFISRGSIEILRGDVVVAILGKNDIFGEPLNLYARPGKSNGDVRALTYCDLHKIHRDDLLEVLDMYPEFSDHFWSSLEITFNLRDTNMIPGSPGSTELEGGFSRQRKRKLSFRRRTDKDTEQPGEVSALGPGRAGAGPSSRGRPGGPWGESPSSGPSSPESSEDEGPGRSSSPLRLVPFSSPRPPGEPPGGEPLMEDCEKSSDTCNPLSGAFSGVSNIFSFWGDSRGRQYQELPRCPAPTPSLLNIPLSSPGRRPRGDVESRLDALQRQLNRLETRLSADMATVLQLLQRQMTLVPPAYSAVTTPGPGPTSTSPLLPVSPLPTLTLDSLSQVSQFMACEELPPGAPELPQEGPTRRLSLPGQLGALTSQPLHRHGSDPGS

IC50 (MV-4-11 cells) [nM]	degradation of GSPT1 protein (GSPT1 [1]; 10 μM)	degradation of GSPT1 (GSPT1 [4]; 0.01 μM, 4 h treatment, western blot (FIG. 1))	compound-induced degradation of GSPT1 after pretreatment with MG132 or MLN4924 (GSPT1 [4]; pretreatment with proteasome inhibitor MG132 or NEDD8 activating enzyme inhibitor MLN4924)	SMILES	hERG Inhibition rate (3 μM) (hERG potassium channel [2]) [%]	inhibition at 3 µM (hERG potassium channel [3]) [%]	degradation of GSPT1, concentration dependence (GSPT1 [1]; concentrations from 1.52 nM)
< 1	completely degradation	–	–	CCc1ccc(C#CC(=O)NCc2ccc3c(c2)CN(C2CCC(=O)NC2=O)C3=O)cc1 (stereo not shown) [Compound 1]	–	–	–
1 to 10	–	significantly degradation	completely blocked	Nc1ccccc1C#CC(=O)NCc1ccc2c(c1)CN(C1CCC(=O)NC1=O)C2=O (stereo not shown) [Compound 83]	–	–	–
1 to 10	–	–	–	O=C(C#Cc1ccc(F)cn1)NCc1ccc2c(c1)CN(C1CCC(=O)NC1=O)C2=O (stereo not shown) [Compound 12]	–	–	induced the degradation of GSPT1 more as the concentration increases

SMILES	IC50 (MV-4-11 cells) [nM]	degradation of GSPT1 protein (GSPT1 [1]; 10 μM)	degradation of GSPT1 (GSPT1 [4]; 0.01 μM, 4 h treatment, western blot (FIG. 1))	compound-induced degradation of GSPT1 after pretreatment with MG132 or MLN4924 (GSPT1 [4]; pretreatment with proteasome inhibitor MG132 or NEDD8 activating enzyme inhibitor MLN4924)	hERG Inhibition rate (3 μM) (hERG potassium channel [2]) [%]	inhibition at 3 µM (hERG potassium channel [3]) [%]	degradation of GSPT1, concentration dependence (GSPT1 [1]; concentrations from 1.52 nM)
O=C1CCC(N2Cc3cc(CNC(=O)C(F)(F)c4ccc(Cl)cc4)ccc3C2=O)C(=O)N1 (stereo not shown) [CC-90009]	10 to 100	–	–	–	64.48	64	–
